Test results taken from patent US20070053841A1, “USE OF 1,1,1,2-TETRAFLUOROETHANE FOR MEASURING LUNG FUNCTION, ESPECIALLY FOR DETERMINING THE FUNCTIONAL RESIDUAL CAPACITY (FRC) OF THE LUNGS” (Drager Medical AG & Co. KG, priority 2005, published 2007).

Test: blood-gas partition coefficient L (solubility of the gas in the blood)
Assay type: physicochemical
Conditions: gas 1 = R 134a, gas 2 = R 227; equilibrium between gas dissolved in blood and gas phase
Procedure: The solubility of gases in the blood can be described by the blood-gas partition coefficient L, which describes the ratio of the volume percentages between gas dissolved in the blood and gas present in the gas phase. The prerequisite for this is the presence of an equilibrium with identical partial pressures of the gas in the phase in which it is dissolved in the blood and in the gas phase. Lowest possible solubility of the tracer gas in the blood is desirable for the lung function diagnostic tests and especially for the determination of the FRC, because what we wish to ultimately determine is the lung volume rather than the quantity of blood in the body. By using at least two gases with different solubilities in blood, the FRC measurement can be corrected with respect to the solubility in blood. The subscripts 1 and 2 below designate the two gases, which may stand, e.g., for R 134a and R 227. It can be assumed below, without restricting the generality, that L1>L2, so that the FRC measured with gas 1 (for example, R 134a) will be greater than that determined with gas 2 (for example, R 227). The blood volume can be determined from the difference of the FRC values: [formula] […] In case of R 134a and R 227, the coefficient L1/L2 is approx. 4, so that the measured difference in FRC is divided by 3.

FCC(F)(F)F [R 134a, 1,1,1,2-tetrafluoroethane]
coefficient L1/L2 (ratio of blood-gas partition coefficients): approx. 4
